≈ marks a conversion by molar mass, not a printed value. Calls of active or inactive are those of the source. No cut-off for these calls is given here. Peptide text beside a SMILES is read from it. * marks the point of attachment. Myristoyl = CCCCCCCCCCCCCC(=O)*
Experiments:
[1] = system: Acinetobacter baumannii; assay: Antibacterial activity against Acinetobacter baumannii ATCC 19606 assessed as reduction in bacterial growth incubated for 18 to 24 hrs by broth microdilution method; assay type: functional; settings: time 18-24 hrs
[2] = system: Klebsiella pneumoniae; assay: Antibacterial activity against Klebsiella pneumoniae ATCC 700603 assessed as reduction in bacterial growth incubated for 18 to 24 hrs by broth microdilution method; assay type: functional; settings: time 18-24 hrs
[3] = system: Escherichia coli; assay: Antibacterial activity against Escherichia coli ATCC 25922 assessed as reduction in bacterial growth incubated for 18 to 24 hrs by broth microdilution method; assay type: functional; settings: time 18-24 hrs
[4] = system: Pseudomonas aeruginosa; assay: Antibacterial activity against Pseudomonas aeruginosa ATCC 27853 assessed as reduction in bacterial growth incubated for 18 to 24 hrs by broth microdilution method; assay type: functional; settings: time 18-24 hrs
[5] = system: Enterococcus faecalis; assay: Antibacterial activity against Enterococcus faecalis ATCC 29212 assessed as reduction in bacterial growth incubated for 18 to 24 hrs by broth microdilution method; assay type: functional; settings: time 18-24 hrs
[6] = system: Staphylococcus epidermidis; assay: Antibacterial activity against Staphylococcus epidermidis ATCC 12228 assessed as reduction in bacterial growth incubated for 18 to 24 hrs by broth microdilution method; assay type: functional; settings: time 18-24 hrs
[7] = system: Bacillus subtilis; assay: Antibacterial activity against Bacillus subtilis ATCC 23857 assessed as reduction in bacterial growth incubated for 18 to 24 hrs by broth microdilution method; assay type: functional; settings: time 18-24 hrs
[8] = system: Staphylococcus aureus; assay: Antibacterial activity against Staphylococcus aureus ATCC 25923 assessed as reduction in bacterial growth incubated for 18 to 24 hrs by broth microdilution method; assay type: functional; settings: time 18-24 hrs
[9] = system: Cell membrane; assay: Induction of cytoplasmic membrane depolarization in Escherichia coli assessed as increase in fluorescence intensity at 0.5 to 2 times MIC measured for 10 mins by DiSC3-5 dye based fluorescence assay
[10] = system: Cell membrane; assay: Induction of cytoplasmic membrane depolarization in Staphylococcus aureus assessed as increase in fluorescence intensity at 0.5 to 4 times MIC measured for 1 mins by DiSC3-5 dye based fluorescence assay
[11] = system: Staphylococcus aureus; assay: Antibacterial activity against methicillin-resistant Staphylococcus aureus ATCC 33591 assessed as reduction in bacterial growth incubated for 18 to 24 hrs by broth microdilution method; assay type: functional; settings: time 18-24 hrs
[12] = system: Staphylococcus aureus; assay: Antibacterial activity against methicillin-resistant Staphylococcus aureus 75 assessed as reduction in bacterial growth incubated for 18 to 24 hrs by broth microdilution method; assay type: functional; settings: time 18-24 hrs
[13] = system: Staphylococcus aureus; assay: Antibacterial activity against Staphylococcus aureus 113 assessed as reduction in bacterial growth incubated for 18 to 24 hrs by broth microdilution method; assay type: functional; settings: time 18-24 hrs
[14] = system: Staphylococcus aureus; assay: Antibacterial activity against Staphylococcus aureus 125 assessed as reduction in bacterial growth incubated for 18 to 24 hrs by broth microdilution method; assay type: functional; settings: time 18-24 hrs
[15] = system: Staphylococcus aureus; assay: Antibacterial activity against Staphylococcus aureus 794 assessed as reduction in bacterial growth incubated for 18 to 24 hrs by broth microdilution method; assay type: functional; settings: time 18-24 hrs
[16] = system: Acinetobacter baumannii; assay: Antibacterial activity against Acinetobacter baumannii 5444 assessed as reduction in bacterial growth incubated for 18 to 24 hrs by broth microdilution method; assay type: functional; settings: time 18-24 hrs
[17] = system: Acinetobacter baumannii; assay: Antibacterial activity against Acinetobacter baumannii 92359 assessed as reduction in bacterial growth incubated for 18 to 24 hrs by broth microdilution method; assay type: functional; settings: time 18-24 hrs
[18] = system: Escherichia coli; assay: Antibacterial activity against Escherichia coli 850 assessed as reduction in bacterial growth incubated for 18 to 24 hrs by broth microdilution method; assay type: functional; settings: time 18-24 hrs
[19] = system: Escherichia coli; assay: Antibacterial activity against Escherichia coli 780 assessed as reduction in bacterial growth incubated for 18 to 24 hrs by broth microdilution method; assay type: functional; settings: time 18-24 hrs
[20] = system: Pseudomonas aeruginosa; assay: Antibacterial activity against Pseudomonas aeruginosa 124 assessed as reduction in bacterial growth incubated for 18 to 24 hrs by broth microdilution method; assay type: functional; settings: time 18-24 hrs
[21] = system: Pseudomonas aeruginosa; assay: Antibacterial activity against Pseudomonas aeruginosa 6434N assessed as reduction in bacterial growth incubated for 18 to 24 hrs by broth microdilution method; assay type: functional; settings: time 18-24 hrs
[22] = system: Cell membrane; assay: Induction of inner membrane permeabilization in Escherichia coli at 0.5 to 1 times MIC measured for 135 mins by absorbance based analysis

| SMILES | MIC [1] [µM] | MIC [2] [µM] | MIC [3] [µM] | MIC [4] [µM] | MIC [5] [µM] | MIC [6] [µM] | MIC [7] [µM] | MIC [8] [µM] | other results |
| --- | --- | --- | --- | --- | --- | --- | --- | --- | --- |
| CCCCCCCCCCCCCC(=O)N[C@@H](CCCCN)C(=O)N[C@@H](CCCCN)C(=O)N[C@@H](Cc1c[nH]c2ccccc12)C(=O)N[C@@H](Cc1c[nH]c2ccccc12)C(N)=O (Myristoyl-KKWW-NH2) | 32 (≈ 27.4 µg/mL) | 32 (≈ 27.4 µg/mL) | 32 (≈ 27.4 µg/mL) | 16 (≈ 13.7 µg/mL) | 8 (≈ 6.85 µg/mL) | 4 (≈ 3.42 µg/mL) | 2 (≈ 1.71 µg/mL) | 4 (≈ 3.42 µg/mL) | Activity [9]: Active; Compound Showed Similar Effect As Quality Control Polymyxin B; Activity [10]: Active |
| CC(=O)OCC1=C(C(=O)O)N2C(=O)[C@@H](NC(=O)Cc3cccs3)[C@H]2SC1 [CEPHALOTHIN] | 32 (≈ 12.7 µg/mL) | 16 (≈ 6.34 µg/mL) | 1 (≈ 0.396 µg/mL) | 16 (≈ 6.34 µg/mL) | 4 (≈ 1.59 µg/mL) | 1 (≈ 0.396 µg/mL) | 1 (≈ 0.396 µg/mL) | 1 (≈ 0.396 µg/mL) | MIC [11]: 128 µM (≈ 50.7 µg/mL); MIC [12]: 128 µM (≈ 50.7 µg/mL); MIC [13]: 8 µM (≈ 3.17 µg/mL); MIC [14]: 1 µM (≈ 0.396 µg/mL); MIC [15]: 128 µM (≈ 50.7 µg/mL); MIC [16]: 128 µM (≈ 50.7 µg/mL); MIC [17]: 128 µM (≈ 50.7 µg/mL); MIC [18]: 8 µM (≈ 3.17 µg/mL); MIC [19]: 1 µM (≈ 0.396 µg/mL); MIC [20]: 128 µM (≈ 50.7 µg/mL); MIC [21]: 16 µM (≈ 6.34 µg/mL) |
| CC(C)(C)CC(C)(C)c1ccc(OCCO)cc1 | – | – | – | – | – | – | – | – | Activity [22]: Active |
